Ends that are not written are not given here.
How the values were obtained:
Assay in all cases: In vitro HLA binding assay with purified HLA-DR molecules
HLA-DR DRB1*09:01 = HLA-DR DRB1*09:01 (Homo sapiens, UniProt P01903+P01911, A100R/A103E/D57H/D86V/F55Y/F60I/F76Y/I96F/K127E/L162R/M171V/P40D/Q125H/Q99R/R33Q/R42F/S133A/S66N/T210M/V115G/W38K/Y107V/Y59G/Y89S)
HLA-DR DRB1*03:01 = HLA-DR DRB1*03:01 (Homo sapiens, UniProt P01903+P01911, A100K/A102G/A103R/A169T/F55Y/I96L/K41T/L162R/M171V/P40S/Q125H/Q178H/Q39Y/R42S/S66N/T106N/T262R/W38E/Y61H); conditions: purified HLA-DR molecule; high affinity binding = IC50 <1,000 nM
Description: (§1) In vitro binding assays with 14 of the peptides that elicited a response were performed using purified HLA-DR molecules, as previously described (Table 3) ([37]). MHC class II in silico binding predictions were defined, using the IEDB analysis resource ([38]–[40]), combining predictions from the ANN ([41], [42]) and SMM ([43]) algorithms (Supplementary Table 2A).
(§2) To test this hypothesis, we measured the in vitro capacity of the most frequently recognized EXP1 peptides to bind to a panel of 17 of the most prevalent human HLA-DR molecules, since the majority of HLA class II restricted CD4+ T cell responses are presented by these molecules ([49], [50]). Peptides with an IC50 of 1,000 nM or lower, a threshold previously found associated with the vast majority of HLA class II-restricted T cell epitopes, were considered binders to the respective DR molecule ([51]–[53]). […] These include EXP1-P14 which bound to five, EXP1-P15 to 13, EXP1-P16 to 10 and EXP1-P17 to nine different HLA molecules (Table 3).

HLA-DR DRB4*01:01 = HLA-DR DRB4*01:01 (Homo sapiens, UniProt P01903+P13762, G164S); conditions: purified HLA-DR molecule; high affinity binding = IC50 <1,000 nM
Description: as §1, §2

HLA-DR DRB5*01:01 = HLA-DR DRB5*01:01 (Homo sapiens, UniProt P01903+Q30154); conditions: purified HLA-DR molecule; high affinity binding = IC50 <1,000 nM
Description: as §1, §2

HLA-DR DRB1*07:01 = HLA-DR DRB1*07:01 (Homo sapiens, UniProt P01903+P01911, A100R/A102G/A103Q/D57E/D86V/E43K/F76Y/K127E/L162R/M171V/P40G/Q125H/Q99D/R33Q/R42Y/R54Q/S133A/S66F/T210M/V115G/Y107V/Y59L/Y89S); conditions: purified HLA-DR molecule; high affinity binding = IC50 <1,000 nM
Description: as §1, §2

HLA-DR DRB1*08:02 = HLA-DR DRB1*08:02 (Homo sapiens, UniProt P01903+P01911, A100R/A103L/A169T/F76Y/H45Y/I96F/K41T/L162R/M171V/P40S/Q125H/Q178H/Q39Y/Q99D/R218S/R42G/S66Y/V115G/W38E); conditions: purified HLA-DR molecule; high affinity binding = IC50 <1,000 nM
Description: as §1, §2

HLA-DR DRB1*13:01 = HLA-DR DRB1*13:01 (Homo sapiens, UniProt P01903+P01911, A100E/A169T/K41T/L162R/M171V/P40S/Q125H/Q178H/Q39Y/Q99D/R42S/S66N/T262R/W38E/Y61H); conditions: purified HLA-DR molecule; high affinity binding = IC50 <1,000 nM
Description: as §1, §2

HLA-DR DRB1*10:01 = HLA-DR DRB1*10:01 (Homo sapiens, UniProt P01903+P01911, A100R/A169T/D57E/F55L/F60V/F69Y/F76Y/I96L/L162R/M171V/P40V/Q260P/Q39E/Q99R/R195Q/R42F/S149N/S66Y/T210M/V115G/V67A/W38E/Y59R/Y61H); conditions: purified HLA-DR molecule; high affinity binding = IC50 <1,000 nM
Description: as §1, §2

HLA-DR DRB1*04:04 = HLA-DR DRB1*04:04 (Homo sapiens, UniProt P01903+P01911, A100R/A169T/F76Y/I96L/K127E/L162R/M171V/N62H/P40V/Q125Y/R42H/S133A/S149N/S66Y/V209L/W38E); conditions: purified HLA-DR molecule; high affinity binding = IC50 <1,000 nM
Description: as §1, §2

HLA-DR DRB1*04:05 = HLA-DR DRB1*04:05 (Homo sapiens, UniProt P01903+P01911, A100R/A169T/D86S/F76Y/I96L/K127E/L162R/M171V/N62H/P40V/Q125Y/R42H/S133A/S149N/S66Y/V115G/V209L/W38E); conditions: purified HLA-DR molecule; high affinity binding = IC50 <1,000 nM
Description: as §1, §2

HLA-DR DRB1*15:01 = HLA-DR DRB1*15:01 (Homo sapiens, UniProt P01903+P01911); conditions: purified HLA-DR molecule; high affinity binding = IC50 <1,000 nM
Description: as §1, §2

HLA-DR DRB1*04:01 = HLA-DR DRB1*04:01 (Homo sapiens, UniProt P01903+P01911, A100K/A169T/F76Y/I96L/K127E/L162R/M171V/N62H/P40V/Q125Y/R42H/S133A/S149N/S66Y/V115G/V209L/W38E); conditions: purified HLA-DR molecule; high affinity binding = IC50 <1,000 nM
Description: as §1, §2

HLA-DR DRB3*01:01 = HLA-DR DRB3*01:01 (Homo sapiens, UniProt P01903+P79483); conditions: purified HLA-DR molecule; high affinity binding = IC50 <1,000 nM
Description: as §1, §2

HLA-DR DRB1*01:01 = HLA-DR DRB1*01:01 (Homo sapiens, UniProt P01903+P01911, A100R/D57E/F55L/F60I/F76Y/I96L/L162R/M171V/P40L/Q125E/R42F/V115G/Y59C); conditions: purified HLA-DR molecule; high affinity binding = IC50 <1,000 nM
Description: as §1, §2

HLA-DR DRB3*02:02 = HLA-DR DRB3*02:02 (Homo sapiens, UniProt P01903+P79483, A212P/D57E/F66Y/L67A/R103Q/R218S/R40L/S89Y/T80R/V86D/Y55F/Y59H); conditions: purified HLA-DR molecule; high affinity binding = IC50 <1,000 nM
Description: as §1, §2

HLA-DR DRB1*11:01 = HLA-DR DRB1*11:01 (Homo sapiens, UniProt P01903+P01911, A100R/A169T/A87E/I96F/K41T/L162R/M171V/P40S/Q125H/Q178H/Q39Y/Q99D/R42S/S66Y/T262R/V115G/W38E); conditions: purified HLA-DR molecule; high affinity binding = IC50 <1,000 nM
Description: as §1, §2

HLA-DR DRB1*13:02 = HLA-DR DRB1*13:02 (Homo sapiens, UniProt P01903+P01911, A100E/A169T/K41T/L162R/M171V/P40S/Q125H/Q178H/Q39Y/Q99D/R42S/S66N/T262R/V115G/W38E/Y61H); conditions: purified HLA-DR molecule; high affinity binding = IC50 <1,000 nM
Description: as §1, §2

HLA-DR DRB1*11:01, sequence (P01903 26-254 limits assumed, other chains not shown): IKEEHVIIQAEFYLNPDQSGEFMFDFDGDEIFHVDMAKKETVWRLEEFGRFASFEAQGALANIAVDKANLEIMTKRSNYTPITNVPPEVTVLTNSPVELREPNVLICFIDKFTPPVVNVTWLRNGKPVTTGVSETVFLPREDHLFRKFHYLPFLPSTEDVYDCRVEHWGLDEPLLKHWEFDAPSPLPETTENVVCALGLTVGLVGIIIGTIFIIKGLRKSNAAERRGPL
HLA-DR DRB1*03:01, sequence (P01903 26-254, other chains not shown): as the sequence (P01903 26-254 limits assumed, other chains not shown) above
HLA-DR DRB3*02:02, sequence (P01903 26-254 limits assumed): as the sequence (P01903 26-254 limits assumed, other chains not shown) above
HLA-DR DRB3*02:02, sequence (P79483 30-266 R40L/Y55F/D57E/Y59H/F66Y/L67A/T80R/V86D/S89Y/R103Q/A212P/R218S limits assumed): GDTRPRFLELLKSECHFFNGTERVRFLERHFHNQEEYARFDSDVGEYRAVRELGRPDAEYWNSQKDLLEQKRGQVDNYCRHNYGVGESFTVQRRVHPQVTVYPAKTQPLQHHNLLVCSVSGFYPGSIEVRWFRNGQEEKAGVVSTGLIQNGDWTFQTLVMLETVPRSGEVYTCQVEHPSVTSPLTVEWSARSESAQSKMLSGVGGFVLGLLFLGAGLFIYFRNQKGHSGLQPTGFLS
HLA-DR DRB1*13:02, sequence (P01903 26-254 limits assumed, other chains not shown): as the sequence (P01903 26-254 limits assumed, other chains not shown) above

Compound	IC50 (HLA-DR DRB1*09:01) [µM]	IC50 (HLA-DR DRB1*03:01) [µM]	IC50 (HLA-DR DRB4*01:01) [µM]	IC50 (HLA-DR DRB5*01:01) [µM]	IC50 (HLA-DR DRB1*07:01) [µM]	IC50 (HLA-DR DRB1*08:02) [µM]	IC50 (HLA-DR DRB1*13:01) [µM]	IC50 (HLA-DR DRB1*10:01) [µM]	IC50 (HLA-DR DRB1*04:04) [µM]	IC50 (HLA-DR DRB1*04:05) [µM]	IC50 (HLA-DR DRB1*15:01) [µM]	IC50 (HLA-DR DRB1*04:01) [µM]	IC50 (HLA-DR DRB3*01:01) [µM]	IC50 (HLA-DR DRB1*01:01) [µM]	IC50 (HLA-DR DRB3*02:02) [µM]	IC50 (HLA-DR DRB1*11:01) [µM]	IC50 (HLA-DR DRB1*13:02) [µM]
SVFFLALFFIIFNKE [EXP1-P02]	0.648	12.3	17.4	6.95	7.99	2.97	6.46	3.99	2.61	4.25	1.55	4.2	10.6	11.7			
VEVNKRKSKYKLATS [EXP1-P14]	0.077			0.089	8.3		5.74	0.295		0.083	6.1	0.058	13.9	2.35	5.84		
GSGVSSKKKNKKGSG [EXP1-P07]				4.56			1.98										
CC(C)C[C@H](NC(=O)CNC(=O)[C@@H](NC(=O)CNC(=O)CNC(=O)[C@H](CC(C)C)NC(=O)[C@H](CC(C)C)NC(=O)[C@@H](NC(=O)[C@@H](N)[C@@H](C)O)C(C)C)C(C)C)C(=O)N[C@H](C(=O)N[C@@H](CC(C)C)C(=O)N[C@@H](Cc1ccc(O)cc1)C(=O)N[C@@H](CC(N)=O)C(=O)N[C@H](C(=O)N[C@@H](CCC(=O)O)C(=O)O)[C@@H](C)O)C(C)C [EXP1-P19]	4.45		8.28	1.18	3.95		7.44	34	20.1	4.95	0.219	2.44		0.0086			
NANPDADSESNGEPN [EXP1-P25]			12	31.1		4.01		33.6	12.5	18.2	1.1	16.7		19.6		23.2	
EPLIDVHDLISDMIK [EXP1-P10]		6.77	0.162			2.84			1.11	31	29.2	27.5	7.96	6.02			
KLATSVLAGLLGVVS [EXP1-P16]	1.36	10.8	0.567	0.244	0.133	1.15	32.4	0.152	0.454	0.539	2.27	0.38	6.1	0.011	0.481	0.81	
LGVVSTVLLGGVGLV [EXP1-P18]	0.491		0.194	2.47	0.433	1.81	8.56	1.89	0.806	5.02	0.3	2.05	13.5	0.019		6.63	3.23
SKKKNKKGSGEPLID [EXP1-P08]						30											
KEEELVEVNKRKSKY [EXP1-P13]			17.9	1.12			1.19									0.142	
CC[C@H](C)[C@H](NC(=O)[C@@H](NC(=O)[C@H](Cc1ccccc1)NC(=O)[C@H](Cc1ccccc1)NC(=O)[C@H](CC(C)C)NC(=O)[C@H](C)NC(=O)[C@H](CC(C)C)NC(=O)[C@H](Cc1ccccc1)NC(=O)[C@H](Cc1ccccc1)NC(=O)[C@@H](NC(=O)[C@H](CO)NC(=O)[C@H](CC(C)C)NC(=O)[C@@H](NC(=O)[C@H](CCCCN)NC(=O)[C@@H](N)CCSC)[C@@H](C)CC)C(C)C)[C@@H](C)CC)C(=O)O [EXP1-P01]	3.59		25.2	10.9	9.19	5.45	3.12	4.94	9.13	3.52	3.36	5.05		21.4		39.6	

Reference: article PMC6993587, “Detection of EXP1-Specific CD4+ T Cell Responses Directed Against a Broad Range of Epitopes Including Two Promiscuous MHC Class II Binders During Acute Plasmodium falciparum Malaria” (Frontiers in Immunology, 2020)
